Assay results: ChEMBL document CHEMBL1955736, “The anomeric mixture of some O-galactolipid derivatives is more toxic against cancer cells than either anomer alone” (Bioorg Med Chem Lett, 2012)
pIC50: −log10 of the molar value.

Tests used:
[1] = test system: HeLa; experiment: Cytotoxicity against human HeLa cells after 72 hrs by MTT assay; format: functional, cell-based
[2] = test system: A549; experiment: Cytotoxicity against human A549 cells after 72 hrs by MTT assay; format: functional, cell-based; settings: A549, 72 h
[3] = test system: HCT-116; experiment: Cytotoxicity against human HCT116 cells after 72 hrs by MTT assay; format: functional, cell-based; settings: HCT-116, 72 h
[4] = test system: HepG2; experiment: Cytotoxicity against human HepG2 cells after 72 hrs by MTT assay; format: functional, cell-based; settings: HepG2, 72 h
[5] = Cytotoxicity against mouse 3T3L1 cells assessed as viability at 100 ug/mL after 72 hrs by MTT assay; format: cell-based; settings: 3T3-L1 cells, read-out: Activity

Structure (SMILES) | pIC50 [1] | pIC50 [2] | pIC50 [3] | pIC50 [4] | viability at 72 h, 100 ug/mL [5] [%]
CCCCCCCCCCCCCCCCO[C@@H]1O[C@H](CO)[C@H](O)[C@H](O)[C@H]1O | < 3.62 | 3.82 | < 3.62 | < 3.62 | 
CCCCCCCCCCO[C@H]1O[C@H](CO)[C@H](O)[C@H](O)[C@H]1O | < 3.62 | 3.84 | < 3.62 | < 3.62 | 
CCCCCCCCCCCO[C@H]1O[C@H](CO)[C@H](O)[C@H](O)[C@H]1O | 3.71 | 3.99 | 3.82 | 3.82 | 
CCCCCCCCCCCCO[C@H]1O[C@H](CO)[C@H](O)[C@H](O)[C@H]1O | 3.84 | 4.25 | 4.05 | 3.86 | 
CCCCCCCCCCCCCO[C@H]1O[C@H](CO)[C@H](O)[C@H](O)[C@H]1O | 4.13 | 4.29 | 4.12 | 4.05 | 
CCCCCCCCCCCCCCO[C@H]1O[C@H](CO)[C@H](O)[C@H](O)[C@H]1O | 4.17 | 4.30 | 4.14 | 4.17 | 
CCCCCCCCCCCCCCCO[C@H]1O[C@H](CO)[C@H](O)[C@H](O)[C@H]1O | 4.21 | 4.33 | 4.28 | < 3.62 | 
CCCCCCCCCCCCCCCCO[C@H]1O[C@H](CO)[C@H](O)[C@H](O)[C@H]1O | 4.26 | 4.41 | 4.37 | < 3.62 | 
CCCCCCCCCCO[C@@H]1O[C@H](CO)[C@H](O)[C@H](O)[C@H]1O | < 3.62 | 3.80 | < 3.62 | < 3.62 | 
CCCCCCCCCCCO[C@@H]1O[C@H](CO)[C@H](O)[C@H](O)[C@H]1O | 3.69 | 3.93 | 3.81 | 3.70 | 
CCCCCCCCCCCCO[C@@H]1O[C@H](CO)[C@H](O)[C@H](O)[C@H]1O | 3.82 | 4.11 | 4.01 | 3.79 | 
CCCCCCCCCCCCCO[C@@H]1O[C@H](CO)[C@H](O)[C@H](O)[C@H]1O | 3.83 | 4.21 | 4.07 | 3.85 | 
CCCCCCCCCCOC1O[C@H](CO)[C@H](O)[C@H](O)[C@H]1O (mixture of isomers) | 3.74 | 3.97 | 3.85 | 3.72 | 
CCCCCCCCCCCOC1O[C@H](CO)[C@H](O)[C@H](O)[C@H]1O (mixture of isomers) | 4.22 | 4.34 | 4.29 | 4.17 | 
CCCCCCCCCCCCOC1O[C@H](CO)[C@H](O)[C@H](O)[C@H]1O (mixture of isomers) | 4.23 | 4.39 | 4.32 | 4.20 | 
CCCCCCCCCCCCCOC1O[C@H](CO)[C@H](O)[C@H](O)[C@H]1O (mixture of isomers) | 4.24 | 4.41 | 4.41 | 4.27 | 
CCCCCCCCCCCCCCCCOC1O[C@H](CO)[C@H](O)[C@H](O)[C@H]1O (mixture of isomers) | 4.35 | 4.60 | 4.49 | < 3.62 | 94.3
